Columns and labels:
[1] = biological target: KRAS G12C (Homo sapiens, UniProt P01116, G12C); assay: GDP-GTP exchange assay (KRAS_G12C exchange); type: biochemical; details: bodipy-GDP loaded KRAS G12C 2.5 nM, SOS1 150 nM, GppNHp; 2 hours pre-incubation, 2 hours reaction; read-out: G12C_exchange
Summary of the method: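 Fluorescence exchange of bodipy-GDP for GppNHp, SOS1-driven, read at 485/520 nm; IC50 from four-parameter variable-slope fit. Both mutants used 2.5 nM final labelled protein and a 2 h compound pre-incubation. G12C reaction had 500 uM GppNHp and 150 nM SOS1 for 2 h; G12D ran 4 h.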

[2] = test system: MIA PaCa-2 (KRAS G12C) cells; assay: Cellular pERK HTRF assay (KRAS_G12C pERK); type: cell-based, human; details: Homo sapiens, MIA PaCa-2, 4 hours incubation, read-out: G12C_pERK
Summary of the method: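 MIA PaCa-2 cells plated overnight, then exposed to compound for 4 h at 37 °C (G12C compounds). Phospho-ERK1/2 measured in lysates by HTRF (665/620 nm) after overnight antibody incubation; IC50 from percent inhibition versus log concentration.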

Chain of KRAS G12C (P01116 1-188 isoform P01116-2 G12C): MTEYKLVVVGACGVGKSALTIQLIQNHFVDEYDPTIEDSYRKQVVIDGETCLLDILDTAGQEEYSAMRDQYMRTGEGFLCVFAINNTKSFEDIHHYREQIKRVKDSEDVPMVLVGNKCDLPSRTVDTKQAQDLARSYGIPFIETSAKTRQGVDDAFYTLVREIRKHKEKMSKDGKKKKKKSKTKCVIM

SMILES	IC50 [1]	IC50 [2]
Cc1cccc(-c2c(C)cc3c(nc(N4CC(C)(N(C)C)C4)c4nnn([C@H]5CCN(C(=O)/C=C/CF)[C@H](CC#N)C5)c43)c2F)c1C [Example 209, 2-((2S,4S)-4-(4-(3-(dimethylamino)-3-methylazetidin-1-yl)-7-(2,3-dimethylphenyl)-6-fluoro-8-methyl-1H-[1,2,3]triazolo[4,5-c]quinolin-1-yl)-1-((E)-4-fluorobut-2-enoyl)piperidin-2-yl)acetonitrile]	≤ 100 nM	≤ 100 nM
C=CC(=O)N1CCC(n2nnc3c(OC[C@@H]4CCCN4C)nc4c(F)c(-c5cccc(C)c5)c(Cl)cc4c32)C[C@H]1CC#N (stereo partly drawn) [Example 210, 2-((2S)-1-acryloyl-4-(8-chloro-6-fluoro-4-(((S)-1-methylpyrrolidin-2-yl)methoxy)-7-(m-tolyl)-1H-[1,2,3]triazolo[4,5-c]quinolin-1-yl)piperidin-2-yl)acetonitrile]	≤ 100 nM	≤ 100 nM
C=CC(=O)N1CCC(n2nnc3c(N4CC(C)(N(C)C)C4)nc4c(F)c(-c5cccc(C)c5)c(Cl)cc4c32)C[C@H]1CC#N (stereo partly drawn) [Example 211, 2-((2S)-1-acryloyl-4-(8-chloro-4-(3-(dimethylamino)-3-methylazetidin-1-yl)-6-fluoro-7-(m-tolyl)-1H-[1,2,3]triazolo[4,5-c]quinolin-1-yl)piperidin-2-yl)acetonitrile]	≤ 100 nM	≤ 100 nM
CN(C)C/C=C/C(=O)N1CCC(n2nnc3c(N4CC(C)(N(C)C)C4)nc4c(F)c(-c5cccc6cccc(Cl)c56)c(Cl)cc4c32)C[C@H]1CC#N (stereo partly drawn) [Example 217, 2-((2S)-4-(8-chloro-7-(8-chloronaphthalen-1-yl)-4-(3-(dimethylamino)-3-methylazetidin-1-yl)-6-fluoro-1H-[1,2,3]triazolo[4,5-c]quinolin-1-yl)-1-((E)-4-(dimethylamino)but-2-enoyl)piperidin-2-yl)acetonitrile]	≤ 100 nM	≤ 100 nM
CC#CC(=O)N1CCC(n2cnc3c(N4CC(C)(N(C)C)C4)nc4c(F)c(-c5cccc6cccc(Cl)c56)c(C)cc4c32)C[C@H]1CC#N (stereo partly drawn) [Example 222, 2-((2S)-1-(but-2-ynoyl)-4-(7-(8-chloronaphthalen-1-yl)-4-(3-(dimethylamino)-3-methylazetidin-1-yl)-6-fluoro-8-methyl-1H-imidazo[4,5-c]quinolin-1-yl)piperidin-2-yl)acetonitrile]	≤ 100 nM	≤ 100 nM
C=CC(=O)N1CCC(n2nnc3c(N4CC(C)(N(C)C)C4)nc4c(F)c(-c5cccc6cccc(Cl)c56)c(C)cc4c32)C[C@H]1CC#N (stereo partly drawn) [Example 225, 2-((2S)-1-acryloyl-4-(7-(8-chloronaphthalen-1-yl)-4-(3-(dimethylamino)-3-methylazetidin-1-yl)-6-fluoro-8-methyl-1H-[1,2,3]triazolo[4,5-c]quinolin-1-yl)piperidin-2-yl)acetonitrile]	≤ 100 nM	≤ 100 nM
CC#CC(=O)N1CC[C@H](n2nnc3c(N4CC(C)(N(C)C)C4)nc4c(F)c(-c5cccc(C)c5C)c(C)cc4c32)C[C@H]1CC#N [Example 226, 2-((2S,4S)-1-(but-2-ynoyl)-4-(4-(3-(dimethylamino)-3-methylazetidin-1-yl)-7-(2,3-dimethylphenyl)-6-fluoro-8-methyl-1H-[1,2,3]triazolo[4,5-c]quinolin-1-yl)piperidin-2-yl)acetonitrile]	≤ 100 nM	≤ 100 nM
C=CC(=O)N1CC[C@H](n2cnc3c(N4CC(N(C)C)C4)nc4c(F)c(-c5ccc(F)c6cccnc56)c(C(F)(F)F)cc4c32)C[C@H]1CC#N [Example 229, 2-((2S,4S)-1-acryloyl-4-(4-(3-(dimethylamino)azetidin-1-yl)-6-fluoro-7-(5-fluoroquinolin-8-yl)-8-(trifluoromethyl)-1H-imidazo[4,5-c]quinolin-1-yl)piperidin-2-yl)acetonitrile]	≤ 100 nM	≤ 100 nM
Cc1c(Cl)cc2[nH]ncc2c1-c1c(CCC#N)cc2c(nc(N3CC(N(C)C)C3)c3nnn([C@H]4CCN(C(=O)/C=C/CN(C)C)[C@H](CC#N)C4)c32)c1F [Example 232, 3-(7-(6-chloro-5-methyl-1H-indazol-4-yl)-1-((2S,4S)-2-(cyanomethyl)-1-((E)-4-(dimethylamino)but-2-enoyl)piperidin-4-yl)-4-(3-(dimethylamino)azetidin-1-yl)-6-fluoro-1H-[1,2,3]triazolo[4,5-c]quinolin-8-yl)propanenitrile]	≤ 100 nM	≤ 100 nM
CC#CC(=O)N1CC[C@H](n2nnc3c(N4CC(C)(N(C)C)C4)nc4c(F)c(-c5ccc(F)c6cccnc56)c(C(F)(F)F)cc4c32)C[C@H]1CC#N [Example 234, 2-((2S,4S)-1-(but-2-ynoyl)-4-(4-(3-(dimethylamino)-3-methylazetidin-1-yl)-6-fluoro-7-(5-fluoroquinolin-8-yl)-8-(trifluoromethyl)-1H-[1,2,3]triazolo[4,5-c]quinolin-1-yl)piperidin-2-yl)acetonitrile]	≤ 100 nM	≤ 100 nM
CC#CC(=O)N1CC[C@H](n2nnc3c(N4CC(C)(N(C)C)C4)nc4c(F)c(-c5cccc(C)c5Cl)c(C(F)(F)F)cc4c32)C[C@H]1CC#N [Example 236, 2-((2S,4S)-1-(but-2-ynoyl)-4-(7-(2-chloro-3-methylphenyl)-4-(3-(dimethylamino)-3-methylazetidin-1-yl)-6-fluoro-8-(trifluoromethyl)-1H-[1,2,3]triazolo[4,5-c]quinolin-1-yl)piperidin-2-yl)acetonitrile]	≤ 100 nM	≤ 100 nM
Cc1cccc(-c2c(C(F)(F)F)cc3c(nc(N4CC(C)(N(C)C)C4)c4nnn([C@H]5CCN(C(=O)/C=C/CN(C)C)[C@H](CC#N)C5)c43)c2F)c1Cl [Example 237, 2-((2S,4S)-4-(7-(2-chloro-3-methylphenyl)-4-(3-(dimethylamino)-3-methylazetidin-1-yl)-6-fluoro-8-(trifluoromethyl)-1H-[1,2,3]triazolo[4,5-c]quinolin-1-yl)-1-((E)-4-(dimethylamino)but-2-enoyl)piperidin-2-yl)acetonitrile]	≤ 100 nM	≤ 100 nM
CC#CC(=O)N1CC[C@H](n2nnc3c(N4CC(C)(N(C)C)C4)nc4c(F)c(-c5cccc(Cl)c5C)c(C(F)(F)F)cc4c32)C[C@H]1CC#N [Example 239a, 2-((2S,4S)-1-(but-2-ynoyl)-4-(7-(3-chloro-2-methyl-phenyl)-4-(3-(dimethyl-amino)-3-methylazetidin-1-yl)-6-fluoro-8-(trifluoro-methyl)-1H-[1,2,3]triazolo-[4,5-c]quinolin-1-yl)piperidin-2-yl)acetonitrile]	≤ 100 nM	≤ 100 nM
Cc1c(Cl)cccc1-c1c(C(F)(F)F)cc2c(nc(N3CC(C)(N(C)C)C3)c3nnn([C@H]4CCN(C(=O)/C=C/CN(C)C)[C@H](CC#N)C4)c32)c1F [Example 240, 2-((2S,4S)-4-(7-(3-chloro-2-methylphenyl)-4-(3-(dimethylamino)-3-methylazetidin-1-yl)-6-fluoro-8-(trifluoromethyl)-1H-[1,2,3]triazolo[4,5-c]quinolin-1-yl)-1-((E)-4-(dimethylamino)but-2-enoyl)piperidin-2-yl)acetonitrile]	≤ 100 nM	≤ 100 nM
CC#CC(=O)N1CC[C@H](n2nnc3c(OC[C@@H]4CCCN4C)nc4c(F)c(-c5cccc(Cl)c5C)c(CCC#N)cc4c32)C[C@H]1CC#N [Example 241a, 3-(1-((2S,4S)-1-(but-2-ynoyl)-2-(cyanomethyl)-piperidin-4-yl)-7-(3-chloro-2-methylphenyl)-6-fluoro-4-(((S)-1-methylpyrrolidin-2-yl)methoxy)-1H-[1,2,3]triazolo[4,5-c]quinolin-8-yl)propanenitrile]	≤ 100 nM	≤ 100 nM
COc1c(Cl)cccc1-c1c(C(F)(F)F)cc2c(nc(N3CC(C)(N(C)C)C3)c3nnn([C@H]4CCN(C(=O)/C=C/CN(C)C)[C@H](CC#N)C4)c32)c1F [Example 244, 2-((2S,4S)-4-(7-(3-chloro-2-methoxyphenyl)-4-(3-(dimethylamino)-3-methylazetidin-1-yl)-6-fluoro-8-(trifluoromethyl)-1H-[1,2,3]triazolo[4,5-c]quinolin-1-yl)-1-((E)-4-(dimethylamino)but-2-enoyl)piperidin-2-yl)acetonitrile]	≤ 100 nM	≤ 100 nM
COc1c(C)cccc1-c1c(C(F)(F)F)cc2c(nc(N3CC(C)(N(C)C)C3)c3nnn([C@H]4CCN(C(=O)/C=C/CN(C)C)[C@H](CC#N)C4)c32)c1F [Example 246, 2-((2S,4S)-4-(7-(2-methoxy-3-methylphenyl)-4-(3-(dimethylamino)-3-methylazetidin-1-yl)-6-fluoro-8-(trifluoromethyl)-1H-[1,2,3]triazolo[4,5-c]quinolin-1-yl)-1-((E)-4-(dimethylamino)but-2-enoyl)piperidin-2-yl)acetonitrile]	≤ 100 nM	≤ 100 nM
C=CC(=O)N1CC[C@H](n2nnc3c(N4CC(N(C)C)C4)nc4c(F)c(-c5cccc(C)c5Cl)c(C)cc4c32)C[C@H]1CC#N [Example 247, 2-((2S,4S)-1-acryloyl-4-(7-(2-chloro-3-methylphenyl)-4-(3-(dimethylamino)azetidin-1-yl)-6-fluoro-8-methyl-1H-[1,2,3]triazolo[4,5-c]quinolin-1-yl)piperidin-2-yl)acetonitrile]	≤ 100 nM	≤ 100 nM
